Patent publication US20150105252A1, “SUBSTITUTED PYRAZOLES AS HERBICIDES” (E I DU PONT DE NEMOURS AND COMPANY, priority 2013, published 2015)

Columns and labels:
[1] = test system: blackgrass; assay: Test D preemergence; assay type: in vivo, Alopecurus myosuroides; settings: scale 0 to 100
How it was run: (§1)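 Postemergence activity was tested on plants at the 1- to 4-leaf stage (2–18 cm) grown in peat-based medium, and preemergence activity on seeds in silt loam, with chemicals in a surfactant-containing non-phytotoxic solvent. Controlled-environment growth lasted 14–21 days before visual 0–100 scoring.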

[2] = test system: canarygrass; assay: Test D preemergence; assay type: in vivo, Phalaris minor; settings: scale 0 to 100
Source text: (§2) Seeds of plant species selected from bluegrass (annual bluegrass, Poa annua), blackgrass (Alopecurus myosuroides), canarygrass (littleseed canarygrass, Phalaris minor), chickweed (common chickweed, Stellaria media), galium (catchweed bedstraw, Galium aparine), bromegrass, downy (downy bromegrass, Bromus tectorum), field poppy (Papaver rhoeas), field violet (Viola arvensis), foxtail, green (green foxtail, Setaria viridis), deadnettle (henbit deadnettle, Lamium amplexicaule), ryegrass, Italian (Italian ryegrass, Lolium multiflorum), kochia (Kochia scoparia), lambsquarters (Chenopodium album), oilseed rape (Brassica napus), pigweed (redroot pigweed, Amaranthus retroflexus), chamomile (scentless chamomile, Matricaria inodora), speedwell (bird's-eye speedwell, Veronica persica), barley, spring (spring barley, Hordeum vulgare), wheat, spring (spring wheat, Triticum aestivum), buckwheat, wild (wild buckwheat, Polygonum convolvulus), mustard, wild (wild mustard, Sinapis arvensis), oat, wild (wild oat, Avena fatua), radish, wild (wild radish, Raphanus raphanistrum), windgrass (Apera spica-venti), Russian thistle (Salsola kali), barley, winter (winter barley, Hordeum vulgare), and wheat, winter (winter wheat, Triticum aestivum) were planted into a silt loam soil and treated preemergence with test chemicals formulated in a non-phytotoxic solvent mixture which included a surfactant.
(§3) At the same time, these species were planted in pots containing Redi-Earth® planting medium (Scotts Company, 14111 Scottslawn Road, Marysville, Ohio 43041) comprising spaghnum peat moss, vermiculite, wetting agent and starter nutrients and treated with postemergence applications of the test chemicals formulated in the same manner. Plants ranged in height from 2 to 18 cm (1- to 4-leaf stage). Treated plants and controls were maintained in a controlled growth environment for 14 to 21 days after which time all species were compared to controls and visually evaluated. Plant response ratings, summarized in Table D, are based on a scale of 0 to 100 where 0 is no effect and 100 is complete control. A dash (-) response means no test result.

[3] = test system: galium; assay: Test D preemergence; assay type: in vivo, Galium aparine; settings: scale 0 to 100
Source text: as §2, §3

[4] = test system: kochia; assay: Test D preemergence; assay type: in vivo, Kochia scoparia; settings: scale 0 to 100
How it was run: as §1

[5] = test system: wheat, spring; assay: Test D preemergence; assay type: in vivo, Triticum aestivum; settings: scale 0 to 100
How it was run: as §1

[6] = test system: wheat, winter; assay: Test D preemergence; assay type: in vivo, Triticum aestivum; settings: scale 0 to 100
How it was run: as §1

[7] = test system: buckwheat, wild; assay: Test D preemergence; assay type: in vivo, Polygonum convolvulus; settings: scale 0 to 100
Source text: as §2, §3

[8] = test system: canarygrass; assay: Test D postemergence; assay type: in vivo, Phalaris minor; settings: scale 0 to 100
Source text: as §2, §3

[9] = test system: bromegrass, downy; assay: Test D postemergence; assay type: in vivo, Bromus tectorum; settings: scale 0 to 100
How it was run: as §1

[10] = test system: mustard, wild; assay: Test D postemergence; assay type: in vivo, Sinapis arvensis; settings: scale 0 to 100
How it was run: as §1

[11] = test system: common waterhemp; assay: Test F preemergence; assay type: in vivo, Amaranthus rudis
Source text: (§4) Seeds of plant species selected from corn (Zea mays), soybean (Glycine max), velvetleaf (Abutilon theophrasti), lambsquarters (Chenopodium album), wild poinsettia (Euphorbia heterophylla), pigweed, palmer (palmer pigweed, Amaranthus palmeri), common waterhemp (Amaranthus rudis), surinam grass (Brachiaria decumbens), large crabgrass (Digitaria sanguinalis), crabgrass, Brazil (Brazilian crabgrass, Digitaria horizontalis), fall panicum (Panicum dichotomiflorum), giant foxtail (Setaria faberii), green foxtail (Setaria viridis), goosegrass (Eleusine indica), johnsongrass (Sorghum halepense), common ragweed (Ambrosia elation), barnyardgrass (Echinochloa crus-galli), southern sandbur (Cenchrus echinatus), arrowleaf sida (Sida rhombifolia), Italian ryegrass (Lolium multiflorum), dayflower, VA (Virginia (VA) dayflower, Commelina virginica), field bindweed (Convolvulus arvensis), cocklebur (common cocklebur, Xanthium strumarium), morningglory (Ipomoea coccinea), nightshade (eastern black nightshade, Solanum ptycanthum), kochia (Kochia scoparia), yellow nutsedge (Cyperus esculentus), and hairy beggarticks (Bidens pilosa), were planted into a silt loam soil and treated preemergence with test chemicals formulated in a non-phytotoxic solvent mixture which included a surfactant.
(§5) At the same time, plants from these crop and weed species and also horseweed (Canada horseweed, Conyza canadensis), smartweed (ladysthumb smartweed, Polygonum persicaria), waterhemp_RES1, (ALS & Triazine resistant common waterhemp, Amaranthus rudis), and waterhemp_RES2, (ALS & HPPD resistant common waterhemp, Amaranthus rudis) were treated with postemergence applications of test chemicals formulated in the same manner. Plants ranged in height from 2 to 18 cm for postemergence treatments (1- to 4-leaf stage). Treated plants and controls were maintained in a greenhouse for 14 to 21 days, after which time all species were compared to controls and visually evaluated. Plant response ratings, summarized in Table F, are based on a scale of 0 to 100 where 0 is no effect and 100 is complete control. A dash (-) response means no test result.

[12] = test system: large crabgrass; assay: Test F preemergence; assay type: in vivo, Digitaria sanguinalis
Source text: as §4, §5

[13] = test system: goosegrass; assay: Test F preemergence; assay type: in vivo, Eleusine indica
Source text: as §4, §5

[14] = test system: Italian ryegrass; assay: Test F preemergence; assay type: in vivo, Lolium multiflorum
How it was run: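 Plant response is scored by eye relative to controls on a 0 to 100 scale, where 100 means complete control. Preemergence applications were made to seeded silt loam; postemergence ones to seedlings 2 to 18 cm high. Greenhouse holding time was 14 to 21 days.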

[15] = Preemergence, 31 g ai/ha, scale 0 to 100
[16] = Preemergence, 62 g ai/ha, scale 0 to 100
[17] = Preemergence, 125 g ai/ha, scale 0 to 100
[18] = preemergence, 8 g ai/ha, scale 0 to 100, 100 is complete control
[19] = preemergence, 16 g ai/ha, scale 0 to 100, 100 is complete control

In the case of `CCc1cc(C(=O)NCC(F)(F)F)nn1Cc1ccnc(C(F)(F)F)c1` [Compound 78, 5-ethyl-N-(2,2,2-trifluoroethyl)-1-[[(2-trifluoromethyl)-4-pyridinyl]methyl]-1H-pyrazole-3-carboxamide], the “Plant response rating, Blackgrass” value ([1]; 31 g ai/ha) is reported as 35, the “Plant response rating, Blackgrass” value ([1]; 62 g ai/ha) is reported as 70 and the “Plant response rating, Blackgrass” value ([1]; 125 g ai/ha) is reported as 80. For the same molecule, the “Plant response rating, Blackgrass” value ([1]; 250 g ai/ha) was 100, the “Plant response rating, Canarygrass” value ([2]; 31 g ai/ha) was 15 and the “Plant response rating, Canarygrass” value ([2]; 62 g ai/ha) was 30. The “Plant response rating, Canarygrass” value ([2]; 125 g ai/ha) was 90, the “Plant response rating, Canarygrass” value ([2]; 250 g ai/ha) was 100 and the “Plant response rating, Galium” value ([3]; 31 g ai/ha) was 95. For the same molecule, the “Plant response rating, Galium” value ([3]; 62 g ai/ha) was 100, the “Plant response rating, Galium” value ([3]; 125 g ai/ha) was 100 and the “Plant response rating, Galium” value ([3]; 250 g ai/ha) was 100. The “Plant response rating, Kochia” value ([4]; 31 g ai/ha) was 95, the “Plant response rating, Kochia” value ([4]; 62 g ai/ha) was 100 and the “Plant response rating, Kochia” value ([4]; 125 g ai/ha) was 100. For the same molecule, the “Plant response rating, Kochia” value ([4]; 250 g ai/ha) was 100, the “Plant response rating, Wheat, Spring” value ([5]; 31 g ai/ha) was 5 and the “Plant response rating, Wheat, Spring” value ([5]; 62 g ai/ha) was 55. The “Plant response rating, Wheat, Spring” value ([5]; 125 g ai/ha) was 80, the “Plant response rating, Wheat, Spring” value ([5]; 250 g ai/ha) was 100 and the “Plant response rating, Wheat, Winter” value ([6]; 31 g ai/ha) was 15. For the same molecule, the “Plant response rating, Wheat, Winter” value ([6]; 62 g ai/ha) was 50, the “Plant response rating, Wheat, Winter” value ([6]; 125 g ai/ha) was 80 and the “Plant response rating, Wheat, Winter” value ([6]; 250 g ai/ha) was 95. For the same molecule, the “Plant response rating, Buckwheat, Wild” value ([7]; 31 g ai/ha) was 95, the “Plant response rating, Buckwheat, Wild” value ([7]; 62 g ai/ha) was 100 and the “Plant response rating, Buckwheat, Wild” value ([7]; 125 g ai/ha) was 100. The “Plant response rating, Buckwheat, Wild” value ([7]; 250 g ai/ha) was 100, the “Canarygrass plant response rating” value ([8]; Postemergence, 31 g ai/ha) was 5 and the “Canarygrass plant response rating” value ([8]; Postemergence, 125 g ai/ha) was 15. The “Canarygrass plant response rating” value ([8]; Postemergence, 250 g ai/ha) was 25, the “Canarygrass plant response rating” value ([8]; postemergence, 62 g ai/ha) was 10 and the “Bromegrass, Downy plant response rating” value ([9]; Postemergence, 31 g ai/ha) was 10. The “Bromegrass, Downy plant response rating” value ([9]; Postemergence, 125 g ai/ha) was 20, the “Bromegrass, Downy plant response rating” value ([9]; Postemergence, 250 g ai/ha) was 25 and the “Bromegrass, Downy plant response rating” value ([9]; postemergence, 62 g ai/ha) was 15. For the same molecule, the “Mustard, Wild plant response rating” value ([10]; Postemergence, 31 g ai/ha) was 40, the “Mustard, Wild plant response rating” value ([10]; Postemergence, 125 g ai/ha) was 90 and the “Mustard, Wild plant response rating” value ([10]; Postemergence, 250 g ai/ha) was 90. For the same molecule, the “Mustard, Wild plant response rating” value ([10]; postemergence, 62 g ai/ha) was 70, the “Plant response rating, Common Waterhemp” value [11, 15] was 100 and the “Plant response rating, Common Waterhemp” value [11, 16] was 100. The “Plant response rating, Common Waterhemp” value [11, 17] was 100, the “Plant response rating, Common Waterhemp” value [11, 18] was 65 and the “Plant response rating, Common Waterhemp” value [11, 19] was 100. The “Plant response rating, Large Crabgrass” value [12, 15] was 100, the “Plant response rating, Large Crabgrass” value [12, 16] was 100 and the “Plant response rating, Large Crabgrass” value [12, 17] was 100. For the same molecule, the “Plant response rating, Large Crabgrass” value [12, 18] was 75, the “Plant response rating, Large Crabgrass” value [12, 19] was 98 and the “Plant response rating, Goosegrass” value [13, 15] was 90. For the same molecule, the “Plant response rating, Goosegrass” value [13, 16] was 90, the “Plant response rating, Goosegrass” value [13, 17] was 100 and the “Plant response rating, Goosegrass” value [13, 18] was 5. For the same molecule, the “Plant response rating, Goosegrass” value [13, 19] was 40, the “Plant response rating, Italian Ryegrass” value [14, 15] was 5 and the “Plant response rating, Italian Ryegrass” value [14, 16] was 60. The “Plant response rating, Italian Ryegrass” value [14, 17] was 90, the “Plant response rating, Italian Ryegrass” value [14, 18] was 0 and the “Plant response rating, Italian Ryegrass” value [14, 19] was 0.
